Measurements published in patent US11661437B2, “Steroid derivative regulators, method for preparing the same, and uses thereof” (priority 2018, dated 2023).
pIC50: −log10 of the molar value.

Tests used:
[1] = Pharmacokinetic assay in Balb/c mice (plasma and brain tissue); type: in vivo; conditions: male, Balb/c, mouse, in vivo, po, 5 mg/kg; for AUC(0-t): Area under curve AUC0-t; for AUC(0-inf): Area under curve AUC0-∞; for half-life: Half-life t1/2; for MRT: Mean residence time MRT; for Cmax: Plasma concentration Cmax
Experimental: Balb/c mice were used as test animals. The pharmacokinetic behavior in mice (plasma and brain tissue) of the compounds of Example 2, Example 5, Example 7, Example 12, Example 18, Example 23, Example 26, Example 38, Example 41, Example 50, Example 51 and Example 66 orally administrated at a dose of 5 mg/kg was studied.
Each group had 24 male Balb/c mice. After an overnight fast, Balb/c mice were administrated p.o. with the test compound at an administration dose of 5 mg/kg and an administration volume of 10 mL/kg.
0.2 ml of blood was taken from the heart before administration and at 0, 0.5, 1, 2, 4, 6, 8 and 24 hours after administration. The samples were stored in EDTA-K2 tubes, and centrifuged for 6 minutes at 4° C., 6000 rpm to separate the plasma. The plasma samples were stored at −80° C. The mice were sacrificed with CO2, and the whole brain tissue was taken out, weighed, placed in a 2 mL centrifuge tube and stored at −80° C.
1) 160 μL of acetonitrile was added to 40 μL of the plasma sample for precipitation, and then the mixture was centrifuged for 5-20 minutes at 3500×g.
2) 90 μL of acetonitrile containing the internal standard (100 ng/mL) was added to 30 μL of the plasma and brain homogenate samples for precipitation, and then the mixture was centrifuged for 8 minutes at 13000 rpm.
3) 70 μL of the treated supernatant was taken and added to 70 μL of water, and mixed by vortex for 10 minutes. 20 μL of the mixture was taken to analyze the concentration of the test compound by LC/MS/MS. LC/MS/MS analysis instrument: AB Sciex API 4000 Qtrap.
2.6 Liquid Chromatography Analysis • Liquid chromatography condition: Shimadzu LC-20AD pump. • Chromatographic column: Agilent ZORBAX XDB-C18 (50×2.1 mm, 3.5 μm); Mobile phase: Eluent A was 0.1% formic acid in water, and Eluent B was acetonitrile. • Flow rate: 0.4 mL/min • Elution time: 0-4.0 minutes the eluent is as follows:
The main parameters of pharmacokinetics were calculated by WinNonlin 6.1.

[2] = tested on: GABA-A receptor; assay: 35S-TBPS binding assay on rat cerebral cortex cell membrane; design: species or system Sprague-Dawley rat; conditions: 2 nM 35S-TBPS, GABA added, read-out: 35S-TBPS bindng test, IC50 on inhibiting the TBPS binding activity
Experimental: 1.2.1 Extraction of Cerebral Cortex Cell Membrane:
1. The cerebral cortex of male Sprague-Dawley rat was isolated.
2. A pre-chilled 0.32 M sucrose solution (one tablet of protease inhibitor was added per 100 ml) was added to the cerebral cortex (the volume of sucrose solution was 10 times the volume of the cerebral cortex). The mixture was crushed with a 50 ml glass tissue homogenizer in batches and mixed well.
3. The mixture was centrifuged at 1500 g, 4° C. for 10 minutes, and the supernatant was collected.
4. The mixture was centrifuged at 20000 g, 4° C. for 30 minutes, and the supernatant was discarded.
5. The precipitate was resuspended with the pre-chilled phosphate buffer saline (PBS) (one tablet of protease inhibitor was added per 100 ml). An average of 4 ml of PBS was added per rat, and the mixture was mixed well with a glass tissue homogenizer.
6. The mixture was centrifuged at 10000 g, 4° C. for 10 minutes, and the supernatant was discarded.
7. Steps 5 and 6 were repeated three times.
8. Finally, the precipitate was resuspended with 4 volumes of PBS. The resulting solution was dispensed, frozen in liquid nitrogen, and stored at −80° C.
9. The protein concentration was measured by the bicinchoninic acid (BCA) method.
1.2.2 ^35S-TBPS Binding Assay
1. 230 μL of PBS was added to each well of a well plate with 1.1 ml volume.
2. 60 μL of the cerebral cortex cell membrane (5 μg/μL) solution was added to each well, and the mixture was mixed well.
3. The test compound (3 μL per well) was added, and the plate was incubated at 25° C. for 5 minutes. The DMSO concentration was 1%. The initial compound concentration was 1 NM, and a 3-fold dilution in gradient was carried out to obtain a total of 8 gradients and 2 replicates. 1% DMSO was used as a negative control, and 10 μM P026-2 was used as a positive control.
4. GABA was added at a final concentration of […], and incubated at 25° C. for 5 minutes. 1 mM GABA solution was formulated, and 1.5 μL of the solution was added to each well.
5. ^35S-TBPS was added at a final concentration of 2 nM. The concentration of isotope mother solution was 9.7 μM. After dilution with PBS for 100 times, 6 μL of the diluted isotope solution was added to each well.
6. The plate was incubated at 4° C. for 20 hours.
7. The FilterMate GF/C plate was pre-treated with 0.5% PEI, and incubated at 4° C. for 1 hour.
8. The FilterMate GF/C plate was washed with Universal Harvester twice, 50 ml PBS each time.
9. The reaction solution was transferred to the GF/C plate, and each well was washed 4 times with 900 μL PBS.
10. The washed GF/C plate was placed at 55° C. and dried for 10 minutes.
11. 40 μL of scintillation solution was added to each well, and the CPM value was read with TopCount.
1.2.3 Experimental Data Processing Method:
In the experiment, the CPM (counts per minute) value was read with TopCount. According to the readings of the High control (DMSO) and the Low control (10 μM of the positive compound) experimental groups, the % inhibition was calculated based on the following formula: % Inhibition=100×(CPMHigh control−CPMSample)/(CPMHigh control−CPMLow control)
The IC50 of the compound was calculated according to the following 4-parameter nonlinear logic formula: Y=Bottom+(Top−Bottom)/(1+10^((Log IC50−X)*Hill Slope)),
The effect of the compound of the present invention on the TBPS binding activity was determined by the above test, and the measured IC50 values are shown in Table 1.

[3] = tested on: ICR mice; assay: In vivo pharmacodynamic test in the forced swimming model in mice; conditions: 10 mpk p.o.
Experimental: The antidepressant effect of the compound was evaluated by the forced swimming model in mice.
Male ICR mice (25-35 g) were adapted in the test environment for 3 days before the forced swimming test.
According to the test design, the mice were randomly grouped on the day before the test according to body weight, with 12 mice in each group. Before the test, the compounds of each example were administrated intragastrically according to the Tmax thereof in the brain in mice pharmacokinetic test as follows:
1) Model group (0.5% CMC-Na+1% Tween 80 solution, p.o., 10 mL/kg);
2) Compounds of Example 2, Example 5, Example 7, Example 18, Example 23, Example 26 and Example 50 (10 mg/kg, p.o., 10 mL/kg).
When being administrated, the compounds of each example were suspended in 0.5% CMC-Na-1% Tween 80 solution to the desired concentration.
0.5-1 hour after administration, ICR mice were placed in a forced swimming device (transparent glass drum (water depth 18 cm, water temperature 25-26° C.), one mouse per tank) and forced to swim for 6 minutes. The forced swimming device recorded the floating time of the ICR mice during the entire 6 minutes, and the data of the latter four minutes were used for data analysis. The mice were taken out immediately after the swimming test, wiped dry and put back in their original cages.
Note: The criterion for determining the immobility time is that the mouse stops struggling in water and floats, and there are only slight limb movements to keep the head floating on the water.
3.4 Data Analysis Floating time percentage=100*floating time/240 s.

SMILES | Area under curve AUC0-t [1] | Area under curve AUC0-∞ [1] | Half-life t1/2 [1] | Mean residence time MRT [1] | Plasma concentration Cmax [1] | AUC(0-t) [1] | AUC(0-inf) [1] | half-life [1] | MRT [1] | Tmax ([1]; Peak time tmax) | Cmax [1] | pIC50 [2] | Mean (immobility, %) ([3]; floating time percentage = 100*floating time/240 s) | Mean (immobility, s) ([3]; latter four minutes of 6 min swim) | Tmax [1]
C[C@@]1(O)CC[C@@]2(F)[C@H](CC[C@H]3[C@@H]4CC[C@H](C(=O)Cn5cc(C(F)(F)F)cn5)[C@@]4(C)CC[C@@H]32)C1 [Example 7, 1-((3R,5R,8S,9S,10R,13S,14S,17S)-10-Fluoro-3-hydroxy-3,13-dimethylhexadecahydro-1H-cyclopenta[a]phenanthren-17-yl)-2-(4-(trifluoromethyl)-1H-pyrazol-1-yl)ethan-1-one] | 5106.0 ng·h/mL | 5514.3 ng·h/mL | 1.89 h | 3.37 h | 1263.3 ng/mL | 3780 ng·h/mL | 3780 ng·h/mL | 1.73 h | 3.67 h | 1 h | 888 ng/mL | 7.91 | 58.99% | 141.58 s | –
Cc1nnn(CC(=O)[C@H]2CC[C@H]3[C@@H]4CC[C@@H]5C[C@](C)(O)CC[C@]5(F)[C@H]4CC[C@]23C)n1 [Example 41, 1-((3R,5R,8S,9S,10R,13S,14S,17S)-10-Fluoro-3-hydroxy-3,13-dimethylhexadecahydro-1H-cyclopenta[a]phenanthren-17-yl)-2-(5-methyl-2H-tetrazol-2-yl)ethan-1-one] | – | – | – | 0.91 h | 625.3 ng/mL | – | – | – | 0.94 h | – | 1230 ng/mL | 7.87 | – | – | 0.5 h
C[C@@]1(O)CC[C@]2(F)C3CC[C@]4(C)[C@@H](C(=O)Cn5cc(C#N)c(Cl)n5)CC[C@H]4[C@@H]3CC[C@@H]2C1 (stereo partly drawn) [Example 51, 3-Chloro-1-(2-((3R,5R,8S,10R,13S,14S,17S)-10-fluoro-3-hydroxy-3,13-dimethylhexadecahydro-1H-cyclopenta[a]phenanthren-17-yl)-2-oxoethyl)-1H-pyrazole-4-carbonitrile] | 1625.9 ng·h/mL | 1796.0 ng·h/mL | 2.19 h | 3.28 h | 512.3 ng/mL | 1960 ng·h/mL | 2080 ng·h/mL | 1.93 h | 2.65 h | 0.5 h | 711 ng/mL | 7.84 | – | – | 1 h
C[C@@]1(O)CC[C@@]2(F)[C@H](CC[C@H]3[C@@H]4CC[C@H](C(=O)COc5cnc(C(F)(F)F)nc5)[C@@]4(C)CC[C@@H]32)C1 [Example 66, 1-((3R,5R,8S,9S,10R,13S,14S,17S)-10-Fluoro-3-hydroxy-3,13-dimethylhexadecahydro-1H-cyclopenta[a]phenanthren-17-yl)-2-((2-(trifluoromethyl)pyrimidin-5-yl)oxy)ethan-1-one] | – | – | 3.60 h | 5.01 h | – | – | – | 4.39 h | 5.54 h | 0.5 h | – | 7.57 | – | – | 1 h
C[C@@]1(O)CC[C@@]2(F)[C@H](CC[C@H]3[C@@H]4CC[C@H](C(=O)Cn5ncnn5)[C@@]4(C)CC[C@@H]32)C1 [Example 12, 1-((3R,5R,8S,9S,10R,13S,14S,17S)-10-Fluoro-3-hydroxy-3,13-dimethylhexadecahydro-1H-cyclopenta[a]phenanthren-17-yl)-2-(2H-tetrazol-2-yl)ethan-1-one] | – | – | – | 0.73 h | – | – | – | – | 0.86 h | – | – | 7.87 | – | – | 0.5 h
Cc1nn(CC(=O)[C@H]2CC[C@H]3[C@@H]4CC[C@@H]5C[C@](C)(O)CC[C@]5(F)[C@H]4CC[C@]23C)cc1C#N [Example 38, 1-(2-((3R,5R,8S,9S,10R,13S,14S,17S)-10-Fluoro-3-hydroxy-3,13-dimethylhexadecahydro-1H-cyclopenta[a]phenanthren-17-yl)-2-oxoethyl)-3-methyl-1H-pyrazole-4-carbonitrile] | 1216.1 ng·h/mL | 1230.2 ng·h/mL | 1.14 h | 1.6 h | 746.7 ng/mL | 1950 ng·h/mL | 1970 ng·h/mL | 1.08 h | 1.7 h | 0.5 h | 1110 ng/mL | 7.47 | – | – | –
